# Test results as given in ChEMBL document CHEMBL4219257, “Novel 8-hydroxyquinoline derivatives targeting β-amyloid aggregation, metal chelation and oxidative stress against Alzheimer's disease” (Bioorg Med Chem, 2018).
# Activity calls are given as the source filed them. No cut-off for these calls is given here.
# How the values were obtained:
# PC-12 [1] = assay: Inhibition of H2O2-induced ROS level in rat PC12 cells assessed as mean fluorescence intensity at 5 uM preincubated for 4 hrs followed by H2O2 addition measured after 24 hrs by DCFH-DA staining based flow cytometry (reference value: 16947); format: functional
# Mus musculus [2] = assay: Acute toxicity in Kunming mouse assessed as fur sleekness up to 2000 mg/kg, po measured after 4 hrs; format: organism-based; settings: in vivo
# PC-12 [3] = assay: Inhibition of H2O2-induced ROS level in rat PC12 cells assessed as mean fluorescence intensity at 2.5 uM preincubated for 4 hrs followed by H2O2 addition measured after 24 hrs by DCFH-DA staining based flow cytometry (reference value: 16947); format: functional
# PC-12 [4] = assay: Cytoprotection against rotenone-induced oxidative stress in rat PC12 cells assessed as increase in cell viability up to 10 uM after 24 hrs by MTT assay; format: functional, cell-based
# PC-12 [5] = assay: Cytoprotection against H2O2-induced apoptosis in rat PC12 cells assessed as early apoptotic cells at 2.5 uM preincubated for 4 hrs followed by H2O2 addition measured after 24 hrs by Annexin V-FITC/propidium iodide staining based flow cytometry (reference value: 1.5%); format: functional
# Mus musculus [6] = assay: Cardiotoxicity in Kunming mouse up to 2000 mg/kg, po measured after 14 days by macroscopic method; format: toxicity, organism-based; settings: in vivo, 336 h
# Mus musculus [7] = assay: Acute toxicity in Kunming mouse assessed as effect on food consumption up to 2000 mg/kg, po measured after 4 hrs; format: organism-based; settings: in vivo
# PC-12 [8] = assay: Cytoprotection against H2O2-induced apoptosis in rat PC12 cells assessed as early apoptotic cells at 10 uM preincubated for 4 hrs followed by H2O2 addition measured after 24 hrs by Annexin V-FITC/propidium iodide staining based flow cytometry (reference value: 1.5%); format: functional
# PC-12 [9] = assay: Cytoprotection against H2O2-induced apoptosis in rat PC12 cells assessed as necrotic cells at 2.5 uM preincubated for 4 hrs followed by H2O2 addition measured after 24 hrs by Annexin V-FITC/propidium iodide staining based flow cytometry (reference value: 8.9%); format: functional
# PC-12 [10] = assay: Cytoprotection against H2O2-induced apoptosis in rat PC12 cells assessed as live cells at 2.5 uM preincubated for 4 hrs followed by H2O2 addition measured after 24 hrs by Annexin V-FITC/propidium iodide staining based flow cytometry (reference value: 57%); format: functional
# [11] = Metal chelating activity assessed as compound-Zn2+ complex formation by measuring maximum absorption wavelength at 50 uM measured after 30 mins by UV-vis spectrophotometric method (reference value: 241 nanometer)
# Mus musculus [12] = assay: Acute toxicity in Kunming mouse assessed as mortality up to 2000 mg/kg, po measured after 14 days; format: organism-based; settings: in vivo, 336 h
# PC-12 [13] = assay: Cytoprotection against H2O2-induced apoptosis in rat PC12 cells assessed as live cells at 5 uM preincubated for 4 hrs followed by H2O2 addition measured after 24 hrs by Annexin V-FITC/propidium iodide staining based flow cytometry (reference value: 57%); format: functional
# [14] = target: T1, Amyloid-beta precursor protein (Homo sapiens, UniProt P05067); assay: Inhibition of HFIP-pretreated amyloid beta (1 to 42) (unknown origin) self-induced aggregation after 48 hrs by thioflavin T-based fluorometric assay
# PC-12 [15] = assay: Cytoprotection against H2O2-induced apoptosis in rat PC12 cells assessed as live cells at 10 uM preincubated for 4 hrs followed by H2O2 addition measured after 24 hrs by Annexin V-FITC/propidium iodide staining based flow cytometry (reference value: 57%); format: functional
# Mus musculus [16] = assay: Nephrotoxicity in Kunming mouse up to 2000 mg/kg, po measured after 14 days by macroscopic method; format: toxicity, organism-based; settings: in vivo, 336 h
# PC-12 [17] = assay: Cytoprotection against H2O2-induced apoptosis in rat PC12 cells assessed as early apoptotic cells at 5 uM preincubated for 4 hrs followed by H2O2 addition measured after 24 hrs by Annexin V-FITC/propidium iodide staining based flow cytometry (reference value: 1.5%); format: functional
# [18] = Inhibition of Cu2+ - induced amyloid beta (1 to 42) (unknown origin) aggregation at 50 uM after 24 hrs by thioflavin T-based fluorometric assay relative to control
# [19] = Metal chelating activity assessed as compound-Cu2+ complex formation by measuring maximum absorption wavelength at 50 uM measured after 30 mins by UV-vis spectrophotometric method (reference value: 241 nanometer)
# [20] = Metal chelating activity assessed as compound-Fe2+ complex formation by measuring maximum absorption wavelength at 50 uM measured after 30 mins by UV-vis spectrophotometric method (reference value: 241 nanometer)
# PC-12 [21] = assay: Cytoprotection against H2O2-induced apoptosis in rat PC12 cells assessed as late apoptotic cells at 10 uM preincubated for 4 hrs followed by H2O2 addition measured after 24 hrs by Annexin V-FITC/propidium iodide staining based flow cytometry (reference value: 32.6%); format: functional
# [22] = Metal chelating activity assessed as mole fraction of compound required to show 2.3:1 stoichiometry for compound-Cu2+ complex at 50 uM by Job's plot analysis
# PC-12 [23] = assay: Cytoprotection against H2O2-induced apoptosis in rat PC12 cells assessed as necrotic cells at 10 uM preincubated for 4 hrs followed by H2O2 addition measured after 24 hrs by Annexin V-FITC/propidium iodide staining based flow cytometry (reference value: 8.9%); format: functional
# [24] = Metal chelating activity assessed as compound-Zn2+ complex formation at 50 uM measured after 20 mins by fluorescence spectroscopic method
# [25] = Metal chelating activity assessed as compound-Fe2+ complex formation at 50 uM measured after 20 mins by fluorescence spectroscopic method
# Mus musculus [26] = assay: Acute toxicity in Kunming mouse assessed as effect on body weight up to 2000 mg/kg, po measured after 4 hrs; format: organism-based; settings: in vivo
# PC-12 [27] = assay: Cytoprotection against oligomycin A-induced oxidative stress in rat PC12 cells assessed as increase in cell viability up to 10 uM after 24 hrs by MTT assay; format: functional, cell-based
# [28] = Metal chelating activity assessed as compound-Fe3+ complex formation at 50 uM measured after 20 mins by fluorescence spectroscopic method
# PC-12 [29] = assay: Cytoprotection against H2O2-induced apoptosis in rat PC12 cells assessed as late apoptotic cells at 5 uM preincubated for 4 hrs followed by H2O2 addition measured after 24 hrs by Annexin V-FITC/propidium iodide staining based flow cytometry (reference value: 32.6%); format: functional
# [30] = target: T1, Amyloid-beta precursor protein; assay: Inhibition of HFIP-pretreated amyloid beta (1 to 42) (unknown origin) self-induced aggregation at 10 uM after 48 hrs by thioflavin T-based fluorometric assay relative to control
# PC-12 [31] = assay: Inhibition of H2O2-induced ROS level in rat PC12 cells assessed as mean fluorescence intensity at 10 uM preincubated for 4 hrs followed by H2O2 addition measured after 24 hrs by DCFH-DA staining based flow cytometry (reference value: 16947); format: functional
# Mus musculus [32] = assay: Hepatotoxicity in Kunming mouse up to 2000 mg/kg, po measured after 14 days by macroscopic method; format: toxicity, organism-based; settings: in vivo, 336 h
# [33] = Metal chelating activity assessed as compound-Cu2+ complex formation at 50 uM measured after 20 mins by fluorescence spectroscopic method
# PC-12 [34] = assay: Inhibition of H2O2-induced ROS level in rat PC12 cells preincubated for 4 hrs followed by H2O2 addition measured after 24 hrs by DCFH-DA staining based flow cytometry; format: functional, cell-based
# T1 sequence (P05067 whole entry): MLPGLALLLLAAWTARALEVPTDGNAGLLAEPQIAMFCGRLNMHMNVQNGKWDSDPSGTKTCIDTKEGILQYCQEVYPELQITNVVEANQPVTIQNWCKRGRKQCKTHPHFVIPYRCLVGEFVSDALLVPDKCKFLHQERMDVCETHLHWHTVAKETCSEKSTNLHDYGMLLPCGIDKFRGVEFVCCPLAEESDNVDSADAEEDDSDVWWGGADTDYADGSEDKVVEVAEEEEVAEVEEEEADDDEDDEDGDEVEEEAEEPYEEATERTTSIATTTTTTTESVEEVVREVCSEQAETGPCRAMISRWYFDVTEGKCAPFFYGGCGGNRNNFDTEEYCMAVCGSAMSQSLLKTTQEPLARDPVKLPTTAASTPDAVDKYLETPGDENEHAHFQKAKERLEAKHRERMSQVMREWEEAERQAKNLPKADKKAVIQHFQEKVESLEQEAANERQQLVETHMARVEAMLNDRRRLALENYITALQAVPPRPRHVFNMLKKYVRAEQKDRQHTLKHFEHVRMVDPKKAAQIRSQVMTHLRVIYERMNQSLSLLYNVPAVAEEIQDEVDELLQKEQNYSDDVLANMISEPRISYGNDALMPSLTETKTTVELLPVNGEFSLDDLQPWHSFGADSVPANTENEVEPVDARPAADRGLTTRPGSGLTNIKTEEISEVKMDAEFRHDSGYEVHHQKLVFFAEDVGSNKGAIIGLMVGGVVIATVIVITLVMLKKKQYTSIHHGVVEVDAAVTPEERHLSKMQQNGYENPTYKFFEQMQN
structure (smiles),measurement,setting,value
O=C(CCc1ccccc1Cl)N1CCN(Cc2ccc(O)c3ncccc23)CC1,Flu intensity,PC-12 [1],10332
same,Activity,Mus musculus [2],Non-Toxic
same,Flu intensity,PC-12 [3],14556
same,Activity,PC-12 [4],Active
same,Activity,PC-12 [5],2.1%
same,Activity,Mus musculus [6],Non-Toxic
same,Activity,Mus musculus [7],Non-Toxic
same,Activity,PC-12 [8],2%
same,Activity,PC-12 [9],3.7%
same,Activity,PC-12 [10],79.9%
same,Activity,[11],260 nm
same,Activity,Mus musculus [12],Non-Toxic
same,Activity,PC-12 [13],88.3%
same,IC50,[14],5.64 µM
same,Activity,PC-12 [15],90.9%
same,Activity,Mus musculus [16],Non-Toxic
same,Activity,PC-12 [17],2.3%
same,inhibition,[18],88.9%
same,Activity,[19],261 nm
same,Activity,[20],265 nm
same,Activity,PC-12 [21],5.8%
same,Activity,[22],0.7 molar ratio
same,Activity,PC-12 [23],1.3%
same,Activity,[24],Active
same,Activity,[25],Active
same,Activity,Mus musculus [26],Non-Toxic
same,Activity,PC-12 [27],Active
same,Activity,[28],Active
same,Activity,PC-12 [29],8%
same,inhibition,[30],65.8%
same,Flu intensity,PC-12 [31],9392
same,Activity,Mus musculus [32],Non-Toxic
same,Activity,[33],Active
same,inhibition,PC-12 [34],Dose-dependent effect
